Test results as given in ChEMBL document CHEMBL2375306, “Antimicrobial peptides containing unnatural amino acid exhibit potent bactericidal activity against ESKAPE pathogens” (Bioorg Med Chem, 2013).
≈ marks a conversion by molar mass, not a printed value. Numbered stars: 1 amine (or outer) side, 2 acyl side, 3 side chain; on linkers, the order of the positions; unused ones are H or OH. Square brackets hold non-standard residues; d marks the D form. Peptide text beside a SMILES is read from it. * marks the point of attachment. ξ: configuration not given here. X2 = NCCCC[C@H](NC(=O)[C@H](CCCCN)NC(=O)[C@H](CCCCN)NC(=O)[C@H](CCCCN)NCCCCCC(=O)[C@@H]1Cc2ccccc2CN1*)C(N)=O; X3 = NCCCC[C@H](NC(=O)[C@H](CCCCN)NC(=O)[C@H](CCCCN)NC(=O)[C@H](CCCCN)NCCCC(=O)[C@@H]1Cc2ccccc2CN1*)C(N)=O; X6 = NCCCC[C@H](NC(=O)[C@H](CCCCN)NC(=O)[C@H](CCCCN)NC(=O)[C@H](CCCCN)NCCC(=O)[C@@H]1Cc2ccccc2CN1*)C(N)=O; Pro(3ξ,4ξ-(CH2)4) = O=C(O)[C@H]1NCC2CCCCC21; Ethylenediamine = C(CN[*:2])N[*:1]; Tic = O=C(O)[C@@H]1Cc2ccccc2CN1

Experiments:
Assay type in all cases: functional
Enterococcus faecium = assay: Antibacterial activity against Enterococcus faecium MMC4 after 24 hrs by broth microdilution method; details: MMC4, 24 h
Klebsiella aerogenes = assay: Antibacterial activity against Enterobacter aerogenes after 24 hrs by broth microdilution method
Pseudomonas aeruginosa = assay: Antibacterial activity against Pseudomonas aeruginosa PAO1 after 24 hrs by broth microdilution method; details: PAO1, 24 h
Klebsiella pneumoniae = assay: Antibacterial activity against Klebsiella pneumoniae BAMS clinical isolate 07-18 after 24 hrs by broth microdilution method; details: BAMS clinical isolate 07-18, 24 h
Acinetobacter baumannii = assay: Antibacterial activity against Acinetobacter baumannii WRAIR clinical isolate 13 after 24 hrs by broth microdilution method; details: WRAIR clinical isolate 13, 24 h
Staphylococcus aureus = assay: Antibacterial activity against methicillin-sensitive Staphylococcus aureus UAMS-1 after 24 hrs by broth microdilution method; details: UAMS-1, 24 h

SMILES	MIC (Enterococcus faecium) [µg/mL]	MIC (Klebsiella aerogenes) [µg/mL]	MIC (Pseudomonas aeruginosa) [µg/mL]	MIC (Klebsiella pneumoniae) [µg/mL]	MIC (Acinetobacter baumannii) [µg/mL]	MIC (Staphylococcus aureus) [µg/mL]	MBC (Enterococcus faecium) [µg/mL]	MBC (Klebsiella aerogenes) [µg/mL]	MBC (Pseudomonas aeruginosa) [µg/mL]	MBC (Klebsiella pneumoniae) [µg/mL]	MBC (Acinetobacter baumannii) [µg/mL]	MBC (Staphylococcus aureus) [µg/mL]
CC(=O)NCC(=O)N[C@@H](Cc1ccccc1)C(=O)N1Cc2ccccc2C[C@H]1C(=O)N1CC2CCCCC2[C@H]1C(=O)NCC(=O)N[C@@H](CCCCN)C(=O)N1Cc2ccccc2C[C@H]1C(=O)N1CC2CCCCC2[C@H]1C(=O)NCC(=O)N[C@@H](Cc1ccccc1)C(=O)N1Cc2ccccc2C[C@H]1C(=O)N1CC2CCCCC2[C@H]1C(=O)NCC(=O)N[C@@H](CCCCN)C(=O)N1Cc2ccccc2C[C@H]1C(=O)CCCN[C@@H](CCCCN)C(=O)N[C@@H](CCCCN)C(=O)N[C@@H](CCCCN)C(=O)N[C@@H](CCCCN)C(N)=O (stereo not given in full) (Ac-GF[Tic][Pro(3ξ,4ξ-(CH2)4)]GK[Tic][Pro(3ξ,4ξ-(CH2)4)]GF[Tic][Pro(3ξ,4ξ-(CH2)4)]GK-X3)	50 (≈ 20.1 µM)	> 100	> 100	> 100	12.5 (≈ 5.03 µM)	> 100	> 100	> 100	> 100	> 100	50 (≈ 20.1 µM)	> 100
CC(=O)NCC(=O)N[C@@H](Cc1ccccc1)C(=O)N1Cc2ccccc2C[C@H]1C(=O)N1CC2CCCCC2[C@H]1C(=O)NCC(=O)N[C@@H](CCCCN)C(=O)N1Cc2ccccc2C[C@H]1C(=O)N1CC2CCCCC2[C@H]1C(=O)NCC(=O)N[C@@H](Cc1ccccc1)C(=O)N1Cc2ccccc2C[C@H]1C(=O)N1CC2CCCCC2[C@H]1C(=O)NCC(=O)N[C@@H](CCCCN)C(=O)N1Cc2ccccc2C[C@H]1C(=O)N[C@@H](CCCCN)C(=O)N[C@@H](CCCCN)C(=O)N[C@@H](CCCCN)C(N)=O (stereo not given in full) (Ac-GF[Tic][Pro(3ξ,4ξ-(CH2)4)]GK[Tic][Pro(3ξ,4ξ-(CH2)4)]GF[Tic][Pro(3ξ,4ξ-(CH2)4)]GK[Tic]KKK-NH2)	25 (≈ 10.8 µM)	> 100	> 100	100 (≈ 43.2 µM)	12.5 (≈ 5.4 µM)	100 (≈ 43.2 µM)	100 (≈ 43.2 µM)	> 100	> 100	> 100	50 (≈ 21.6 µM)	> 100

The next lines start with results.

MIC (Enterococcus faecium) [µg/mL]	MIC (Klebsiella aerogenes) [µg/mL]	MIC (Pseudomonas aeruginosa) [µg/mL]	MIC (Klebsiella pneumoniae) [µg/mL]	MIC (Acinetobacter baumannii) [µg/mL]	MIC (Staphylococcus aureus) [µg/mL]	SMILES	MBC (Enterococcus faecium) [µg/mL]	MBC (Klebsiella aerogenes) [µg/mL]	MBC (Pseudomonas aeruginosa) [µg/mL]	MBC (Klebsiella pneumoniae) [µg/mL]	MBC (Acinetobacter baumannii) [µg/mL]	MBC (Staphylococcus aureus) [µg/mL]
25 (≈ 9.96 µM)	100 (≈ 39.8 µM)	100 (≈ 39.8 µM)	100 (≈ 39.8 µM)	12.5 (≈ 4.98 µM)	100 (≈ 39.8 µM)	CC(=O)NCC(=O)N[C@@H](Cc1ccccc1)C(=O)N1Cc2ccccc2C[C@H]1C(=O)N1CC2CCCCC2[C@H]1C(=O)NCC(=O)N[C@@H](CCCCN)C(=O)N1Cc2ccccc2C[C@H]1C(=O)N1CC2CCCCC2[C@H]1C(=O)NCC(=O)N[C@@H](Cc1ccccc1)C(=O)N1Cc2ccccc2C[C@H]1C(=O)N1CC2CCCCC2[C@H]1C(=O)NCC(=O)N[C@@H](CCCCN)C(=O)N1Cc2ccccc2C[C@H]1C(=O)CCCCCN[C@@H](CCCCN)C(=O)N[C@@H](CCCCN)C(=O)N[C@@H](CCCCN)C(=O)N[C@@H](CCCCN)C(N)=O (stereo not given in full) (Ac-GF[Tic][Pro(3ξ,4ξ-(CH2)4)]GK[Tic][Pro(3ξ,4ξ-(CH2)4)]GF[Tic][Pro(3ξ,4ξ-(CH2)4)]GK-X2)	> 100	> 100	> 100	100 (≈ 39.8 µM)	25 (≈ 9.96 µM)	> 100
12.5 (≈ 5.06 µM)	> 100	> 100	> 100	12.5 (≈ 5.06 µM)	> 100	CC(=O)NCC(=O)N[C@@H](Cc1ccccc1)C(=O)N1Cc2ccccc2C[C@H]1C(=O)N1CC2CCCCC2[C@H]1C(=O)NCC(=O)N[C@@H](CCCCN)C(=O)N1Cc2ccccc2C[C@H]1C(=O)N1CC2CCCCC2[C@H]1C(=O)NCC(=O)N[C@@H](Cc1ccccc1)C(=O)N1Cc2ccccc2C[C@H]1C(=O)N1CC2CCCCC2[C@H]1C(=O)NCC(=O)N[C@@H](CCCCN)C(=O)N1Cc2ccccc2C[C@H]1C(=O)CCN[C@@H](CCCCN)C(=O)N[C@@H](CCCCN)C(=O)N[C@@H](CCCCN)C(=O)N[C@@H](CCCCN)C(N)=O (stereo not given in full) (Ac-GF[Tic][Pro(3ξ,4ξ-(CH2)4)]GK[Tic][Pro(3ξ,4ξ-(CH2)4)]GF[Tic][Pro(3ξ,4ξ-(CH2)4)]GK-X6)	50 (≈ 20.3 µM)	> 100	> 100	> 100	25 (≈ 10.1 µM)	> 100
12.5 (≈ 5.03 µM)	50 (≈ 20.1 µM)	50 (≈ 20.1 µM)	25 (≈ 10.1 µM)	6.25 (≈ 2.52 µM)	50 (≈ 20.1 µM)	CC(=O)NCC(=O)N[C@@H](Cc1ccccc1)C(=O)N1Cc2ccccc2C[C@H]1C(=O)N1CC2CCCCC2[C@H]1C(=O)NCC(=O)N[C@@H](CCCCN)C(=O)N1Cc2ccccc2C[C@H]1C(=O)N1CC2CCCCC2[C@H]1C(=O)NCC(=O)N[C@@H](Cc1ccccc1)C(=O)N1Cc2ccccc2C[C@H]1C(=O)N1CC2CCCCC2[C@H]1C(=O)NCC(=O)N[C@@H](CCCCN)C(=O)N1Cc2ccccc2C[C@H]1C(=O)N[C@@H](CCCCN)C(=O)N[C@@H](CCCCN)C(=O)N[C@@H](CCCCN)C(=O)N[C@@H](CCCCN)C(=O)NCCN (stereo not given in full) (Ac-GF[Tic][Pro(3ξ,4ξ-(CH2)4)]GK[Tic][Pro(3ξ,4ξ-(CH2)4)]GF[Tic][Pro(3ξ,4ξ-(CH2)4)]GK[Tic]KKKK-Ethylenediamine)	25 (≈ 10.1 µM)	50 (≈ 20.1 µM)	100 (≈ 40.3 µM)	50 (≈ 20.1 µM)	6.25 (≈ 2.52 µM)	> 100
